This note sets out measurements from PubChem BioAssay (NCI).

Each structure is given as a SMILES string. Where “and” joins values, the source holds several entries; their conditions need not be identical. Identical values can stand only once.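 Exposure lasted 48 hours, with cells grown in 96-well plates and compounds tested at five concentrations. The concentration for 50% growth inhibition is given as GI50. TGI marks complete inhibition of growth.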 Where only a bound is given, the exact number is not on record here.

The experiment relates to MDA-MB-468 breast. Put plainly: growth of human tumour cells (NCI), 48 h.

With `N#CC1c2ccccc2C=CN1C(=O)CCCl` (stereo unspecified), the GI50 is 2100 nM and the TGI was determined as 5740 nM.

For the compound `Cc1nn(-c2ccc(Cl)cc2)c2ncnc(N/N=C/c3ccccc3O)c12`, the GI50 was 1710 nM and 1030 nM; the TGI is 6460 nM and 7680 nM. Consider `C[C@]12CC[C@H]3[C@@H](CCC4=CC(=O)CC[C@@]43C)[C@@H]1CC[C@@H]2c1csc(N)n1`, for which the GI50 was 1170 nM and the TGI amounted to 18500 nM. In the same order, the values of `O=C(OCc1ccc2c(Br)cc(Br)c(O)c2n1)c1cc2ccccc2[nH]1` are 419 nM and 1540 nM. The like results for `FC(F)(F)Oc1cccc(-c2cc(NCCCCCCNc3cc(-c4cccc(OC(F)(F)F)c4)nc4ccc(N5CCCC5)cc34)c3cc(N4CCCC4)ccc3n2)c1` were, in that order, 1590 nM and 3210 nM. The like results for `OC1(c2ccc(Cl)c(C(F)(F)F)c2)CCN(CCCC(c2ccc(F)cc2)c2ccc(F)cc2)CC1` were, in that order, 707 nM and 1370 nM. Consider `Nc1nc2c(c3cnccc13)C(c1ccc(Cl)c(Cl)c1)Cc1cnccc1-2` (stereo unspecified), for which the GI50 is 270 nM and the TGI worked out at 807 nM. The like results for `CNCc1cccc2c1OCCOCCOCCN(C)S(=O)(=O)c1ccc(cc1)-c1cnc(N)c(n1)C(=O)N2` were, in that order, 2620 nM and 14600 nM. In the same order, the values of `CCN1C(=S)N(CC)C2C1NC(=S)N2/N=C/C=C/c1ccccc1OC` (stereo unspecified) are 347 nM and 31400 nM. The like results for `CCN(CC)CCCNc1ccc(C)c2sc3ccccc3c(=O)c12` were, in that order, 365 nM and 1270 nM. On to `CCN(CC)Cc1cc(Nc2nc(NC3CCC(N(C)C)CC3)c3ccccc3n2)ccc1OC` (stereo unspecified), for which the GI50 was 1640 nM and the TGI was 3160 nM. In the same order, the values of `Cn1c([N+](=O)[O-])cnc1C=C1C(=O)c2ccccc2C1=O` are 7350 nM and 33100 nM. As to `CC(C)(CO)CNC(=O)c1ccc2[nH]c(O)c(N=Nc3ccc(S(N)(=O)=O)cc3)c2c1`, the GI50 was greater than 17900 nM and the TGI is greater than 25000 nM. As for `COc1ccc2c(N)ncc(C#Cc3cc(C(=O)Nc4ccc(CN5CCN(C)CC5)c(C(F)(F)F)c4)cnc3C)c2c1`, the GI50 was 2460 nM and the TGI worked out at 8940 nM. Consider `O=C1c2cccc(Oc3ccccc3)c2C(=O)c2cccc(Oc3ccccc3)c21`, for which the GI50 was greater than 100000 nM and the TGI was greater than 100000 nM.

`CCCCCCCCCCCC[N+]1(CCCCCCCCCCCC)CCCC(C)C1` (stereo unspecified): the GI50 is 68.9 nM and the TGI worked out at 388 nM. In the same order, the values of `CCN=c1sc2c(n1NC(=O)c1cc3ccc1CCc1ccc(cc1)CC3)C(=O)c1ccccc1C2=O` are 719 nM and 1830 nM. In the same order, the values of `O=C1NC(=N[C@@H](CO)c2ccccc2)S/C1=C\c1ccc2ncccc2c1` are 5780 nM and greater than 25000 nM. The like results for `Cc1ccc2c(-c3ccnc(Nc4ccc5c(c4)OCCO5)n3)c(-c3ccc(C(F)(F)F)cc3)nn2n1` were, in that order, 5190 nM and greater than 25000 nM. For the compound `N#CC1(c2ccc(NC(=O)c3cccnc3NCc3ccncc3)cc2)CCCC1`, the GI50 is 7040 nM and the TGI worked out at 51800 nM.

In the case of `CC(=O)O[C@H]1C(=O)[C@@]2(C)C([C@H](OC(=O)c3ccccc3)[C@]3(O)C[C@H](OC(=O)[C@H](O)[C@@H](NC(=O)c4ccccc4)c4ccccc4)C(C)=C1C3(C)C)[C@]1(OC(C)=O)CO[C@@H]1C[C@@H]2O` (stereo partly specified), the GI50 was less than 5 nM and the TGI was found to be 54.5 nM. In the same order, the values of `CNC(=O)c1ncccc1Nc1nc(Nc2cc3c(cc2OC)CCCN3C(=O)CN(C)C)nc2[nH]ccc12` are 435 nM and 2470 nM. The like results for `COC(=O)OC1C(O[C@H]2C[C@H]3[C@@H]4CC=C5C[C@@H](O)CC[C@]5(C)[C@H]4CC[C@]3(C)[C@H]2[C@H](C)C(=O)CCC(C)C)OCC(O)C1OC1OCC(O)C(O)C1OC(=O)c1ccc(OC)cc1` (stereo partly specified) were, in that order, 111 nM and 1700 nM.

Consider `COc1ccc2c(c1)c(-c1nc(-c3c[nH]c4ncccc34)cs1)cn2CCCN1CCOCC1`, for which the GI50 was 2520 nM and the TGI came out at 5250 nM. On to `CCn1cc(C(=O)O)c(=O)c2cc(F)c(N3CCN(S(=O)(=O)c4cccc5ccccc45)CC3)cc21`, for which the GI50 is 2520 nM and the TGI turned out to be 7320 nM. Take `CCN1C(=O)N(CC)C2SC(N/N=C/c3ccc(OC)cc3)=NC21` (stereo unspecified): the GI50 is 314 nM. With `COc1cc2c(cc1Nc1nc(N3CCc4ccccc43)c3cc[nH]c3n1)N(C(=O)CN(C)C)CC2`, the GI50 was 1300 nM and the TGI came to 2830 nM. Take `CCCCCOc1ccc(/C=N/Nc2cc(C)nc3ccc(Cl)cc23)cc1`: the GI50 was 1700 nM and the TGI was 3370 nM. As to `Cc1cccc(NC(=O)c2sc3nc4c(cc3c2N)C(=O)CCC4)c1`, the GI50 is 80.7 nM and the TGI is 2660 nM. The like results for `Cc1c(C(=N)C(C#N)C#N)c(=N)oc2c1ccc1ccccc12` were, in that order, 13500 nM and 46000 nM.

Consider `O=C(/C=C/C12c3ccccc3C(c3ccccc31)C1C(=O)NC(=O)C12)c1ccccn1` (stereo unspecified), for which the GI50 was 1710 nM and the TGI was 4030 nM.

As to `O=C(Nc1cccc(-n2cc(-c3ccncc3)c(-c3cc(O)cc(Cl)c3)n2)c1)c1ccc(N2CCOCC2)c(C(F)(F)F)c1`, the GI50 is 3420 nM and the TGI was found to be 43300 nM.

As for `c1ccc(-c2[nH]ncc2-c2ccnc(-c3ccc(OCCn4ccnc4)cc3)c2)nc1`, the GI50 is 12200 nM and the TGI is greater than 25000 nM.

Take `CN(C)CCCC1(c2ccc(F)cc2)OCc2cc(-c3cccc4[nH]ccc34)ccc21` (stereo unspecified): the GI50 is 1790 nM and the TGI turned out to be 3430 nM. In the same order, the values of `CN[C@@H](C)C(=O)N[C@H]1CN(S(=O)(=O)c2cccc(S(=O)(=O)N3CC[C@H]4CC[C@@H](C(=O)NC(c5ccccc5)c5ccccc5)N4C(=O)[C@@H](NC(=O)[C@H](C)NC)C3)c2)CC[C@H]2CC[C@@H](C(=O)NC(c3ccccc3)c3ccccc3)N2C1=O` are less than 10 nM and 81.9 nM. In the same order, the values of `COc1ccc(OC)c(NCC(=O)n2nc(/C=C\c3ccc(O)c(OC)c3)cc2/C=C\c2ccc(O)c(OC)c2)c1` are 2850 nM and 23300 nM.

Regarding `CCNc1nc(O)c(/C=C2\C=Nc3ncccc32)s1`, the GI50 is 1990 nM and the TGI was 4270 nM. The like results for `Cn1nccc1Nc1nccc(-c2ccn([C@H](CO)c3ccc(Cl)c(F)c3)c(=O)c2)n1` were, in that order, 18800 nM and 57900 nM. In the same order, the values of `CCN(CC)CCCC(C)NCC(=O)NC(c1ccc2c(c1)OCO2)c1cc(Cl)c2cccnc2c1O` (stereo unspecified) are 1870 nM and 4500 nM.

Regarding `N#Cc1nc2c(S(=O)(=O)c3ccc(Cl)cc3)c(N)n(Nc3cccc(Cl)c3)c2nc1C#N`, the GI50 was 7.06 nM and the TGI is 195 nM. The like results for `COc1cc2c(N3CCN(C(=O)Nc4ccc(OC(C)C)cc4)CC3)ncnc2cc1OCCCN1CCCCC1` were, in that order, 14100 nM and 42900 nM. The like results for `COc1ccc(OC)c(/C=C/c2nc(=S)n(-c3ccc(Cl)cc3)[nH]2)c1` were, in that order, 3510 nM and 55400 nM. The like results for `COc1ccc2sc3c(NCCCN)nc4ccccc4c3c(=O)c2c1` were, in that order, 1560 nM and 3190 nM. With `CC1(C)N=C(N)N=C(N)N1c1ccc(CCC(=O)Nc2ccc(S(=O)(=O)F)cc2)cc1`, the GI50 was 1010 nM and the TGI is greater than 100000 nM. In the same order, the values of `CC1=C(C(=O)Nc2ccccc2)C(c2ccc(N(C)C)cc2)C(C(=O)Nc2ccccc2)=C(C)N1` are 43900 nM and greater than 100000 nM. In the case of `CC(=O)ON1CCCC(P(=O)(OCOC(=O)C(C)(C)C)OCOC(=O)C(C)(C)C)C1=O` (stereo unspecified), the GI50 was 1010 nM and the TGI was 5920 nM. For the compound `Nc1ncnc2c1N=C(c1ccc3c(c1)OCO3)CC(c1ccc(Cl)cc1)N2` (stereo unspecified), the GI50 is 10100 nM and the TGI worked out at 54900 nM. With `O=C1/C(=C/c2ccc(Cl)c(Cl)c2)CN(C(=O)CCN2CCC(=NO)CC2)C/C1=C\c1ccc(Cl)c(Cl)c1`, the GI50 was 898 nM and the TGI is 2400 nM. Consider `Fc1cccc(Cl)c1/C=N/Nc1nc(N/N=C/c2c(F)cccc2Cl)nc(N2CCCCC2)n1`, for which the GI50 was 1860 nM and the TGI turned out to be 6890 nM.

As to `Cc1ccc(O)cc1Nc1ccnc2ccc(S(C)(=O)=O)cc12`, the GI50 was 2040 nM and the TGI turned out to be 9370 nM. In the same order, the values of `O=C1C=C[C@H](O)[C@@]2(CO)O[C@@H]12` are 4610 nM and 20000 nM.
